Active and inactive are the calls of the source. No rule for the calls is given here.
Tested on: GENE-TOX genotoxicity assays, various organisms and cells
Assay: GENE-TOX mutagenicity studies
Conditions: for call: Assay Type: In vivo carcinogenicity studies
Excerpt: GENE-TOX provides genetic toxicology (mutagenicity) test data from expert peer review of open scientific literature for more than 3,000 chemicals from the United States Environmental Protection Agency (EPA). GENE-TOX was established to select assay systems for evaluation, review data in the scientific literature, and recommend proper testing protocols and evaluation procedures for these systems.
GENE-TOX covers the years 1991 - 1998. It is no longer updated.
This is an archive assay for GENE-TOX mutagenicity studies.

[1] = Species/Cell Type: Escherichia coli polA (W3119 vs P3478), Assay Type: Rec-assay, DNA effects (bacterial DNA repair), Assay Code: RE1T, Evaluation Type: Evaluation A (Pre-1980)
[2] = Species/Cell Type: Salmonella typhimurium (one or more of the five standard strains: TA98, TA100, TA1535, TA1537, and TA1538), Assay Type: Histidine reverse gene mutation, Ames assay, Assay Code: SAL+*, Activation: With metabolic activation, Evaluation Type: Evaluation A (Pre-1980)
[3] = Species/Cell Type: Chinese hamster ovary (CHO) cells, Assay Type: Forward gene mutation at the HPRT locus, Assay Code: CHOT, Evaluation Type: Evaluation B (Post-1980)
[4] = Species/Cell Type: Salmonella typhimurium (one or more of the five standard strains: TA98, TA100, TA1535, TA1537, and TA1538), Assay Type: Histidine reverse gene mutation, Ames assay, Assay Code: SAL+, Evaluation Type: Evaluation A (Pre-1980)
[5] = Species/Cell Type: Mammalian polychromatic erythrocytes, Assay Type: Micronucleus test, chromosome aberrations, Assay Code: MNTT, Evaluation Type: Evaluation B (Post-1980)
[6] = Species/Cell Type: Human lymphocytes, Assay Type: Sister-chromatid exchange (SCE) in vitro, Assay Code: SCL+D, Dose Response: With dose response, Evaluation Type: Evaluation B (Post-1980)
[7] = Species/Cell Type: Human, Assay Type: Sister-chromatid exchange (SCE) in vitro, Assay Code: SC1+D, Dose Response: With dose response, Evaluation Type: Evaluation B (Post-1980)
[8] = Species/Cell Type: Saccharomyces cerevisiae, Assay Type: Mitotic recombination or gene conversion, Assay Code: YEC+, Evaluation Type: Evaluation A (Pre-1980)
[9] = Species/Cell Type: Salmonella typhimurium (one or more of the five standard strains: TA98, TA100, TA1535, TA1537, and TA1538), Assay Type: Histidine reverse gene mutation, Ames assay, Assay Code: SALT, Evaluation Type: Evaluation A (Pre-1980)
[10] = Species/Cell Type: Nonhuman, Assay Code: CCGT, Evaluation Type: Evaluation A (Pre-1980)
[11] = Species/Cell Type: Nonhuman, Assay Type: Sister-chromatid exchange (SCE) in vitro, Assay Code: SC2T, Evaluation Type: Evaluation B (Post-1980)

## CC(=O)Nc1ccc2c(c1)Cc1cc(O)ccc1-2
Species/Cell Type: Escherichia coli polA (W3110 vs P3478), Assay Type: Rec-assay, DNA effects (bacterial DNA repair), Assay Code: RE2+, Evaluation Type: Evaluation A (Pre-1980)
  mutagenic call: active; positive
[1]
  mutagenic call: no conclusion
Species/Cell Type: Human diploid fibroblasts, Assay Type: Unscheduled DNA synthesis (UDS) in vitro, DNA effects, Assay Code: UDH-, Evaluation Type: Evaluation A (Pre-1980)
  mutagenic call: inactive; negative
Species/Cell Type: Human, Assay Type: Sister-chromatid exchange (SCE) in vitro, Assay Code: SC1-, Evaluation Type: Evaluation B (Post-1980)
  mutagenic call: inactive; negative
Species/Cell Type: Saccharomyces cerevisiae, Assay Type: Mitotic recombination or gene conversion, Assay Code: YEH-, Evaluation Type: Evaluation A (Pre-1980)
  mutagenic call: inactive; negative
[2]
  mutagenic call: active; positive
Species/Cell Type: Salmonella typhimurium, Assay Type: Forward and reverse gene mutation, host-mediated assay, Assay Code: HMA-, Evaluation Type: Evaluation A (Pre-1980)
  mutagenic call: inactive; negative

## [Cl][Pt-2]([Cl])([Cl])[Cl]
[3]
  mutagenic call: no conclusion

## CCOC(=O)N(CCO)N=O
[4]
  mutagenic call: active; positive

## CSc1ccc2c(c1)N(CCC1CCCCN1C)c1ccccc1S2 (configuration not stated)
Species/Cell Type: Drosophila melanogaster, Assay Type: Sex-linked recessive lethal gene mutation, Assay Code: SRL+, Evaluation Type: Evaluation A (Pre-1980)
  mutagenic call: active; positive
Species/Cell Type: Drosophila melanogaster, Sex: Male, Assay Type: Heritable translocation test, chromosome aberrations, Assay Code: DHT+, Evaluation Type: Evaluation A (Pre-1980)
  mutagenic call: active; positive
[5]
  mutagenic call: no conclusion

## O=C(O)c1c(Br)c(Br)c(Br)c(Br)c1C(=O)O
Species/Cell Type: Salmonella typhimurium (one or more of the five standard strains: TA98, TA100, TA1535, TA1537, and TA1538), Assay Type: Histidine reverse gene mutation, Ames assay, Assay Code: SAL-, Evaluation Type: Evaluation A (Pre-1980)
  mutagenic call: inactive; negative

## O=c1c(O)c(-c2ccc(O)c(O)c2)oc2cc(O)cc(O)c12
[3]
  mutagenic call: no conclusion
[6]
  mutagenic call: active; positive
[7]
  mutagenic call: active; positive
Species/Cell Type: Mammalian polychromatic erythrocytes, Assay Type: Micronucleus test, chromosome aberrations, Assay Code: MNT+, Evaluation Type: Evaluation B (Post-1980)
  mutagenic call: active; positive
Species/Cell Type: Nonhuman, Assay Type: Sister-chromatid exchange (SCE) in vitro, Assay Code: SC2+/-*, Activation: With metabolic activation, Evaluation Type: Evaluation B (Post-1980)
  mutagenic call: inactive; positive without activation, negative with activation
Species/Cell Type: Nonhuman, Assay Type: Sister-chromatid exchange (SCE) in vivo, Assay Code: SC3-, Evaluation Type: Evaluation B (Post-1980)
  mutagenic call: inactive; negative
[8]
  mutagenic call: active; positive
[4]
  mutagenic call: active; positive

## Clc1ccc(C2CO2)cc1 (configuration not stated)
[9]
  mutagenic call: no conclusion

## C[C@@H]1[C@H](O)[C@@H](C)/C=C/C=C/C=C/C=C/C=C/C=C/C=C/[C@H](O[C@@H]2O[C@H](C)[C@@H](O)[C@H](N)[C@@H]2O)C[C@@H]2O[C@](O)(C[C@@H](O)C[C@@H](O)[C@H](O)CC[C@@H](O)C[C@@H](O)CC(=O)O[C@H]1C)C[C@H](O)[C@H]2C(=O)O
Species/Cell Type: Aspergillus nidulans, Assay Type: Aneuploidy, chromosome aberrations, Assay Code: ASN+, Evaluation Type: Evaluation A (Pre-1980)
  mutagenic call: active; positive

## CC1=C(O)C(=O)CC1
[6]
  mutagenic call: active; positive
[7]
  mutagenic call: active; positive

## NC[C@@H](O)CCl
Species/Cell Type: Rodents, Sex: Male, Assay Type: Dominant lethal test, Assay Code: DLT-, Evaluation Type: Evaluation A (Pre-1980)
  mutagenic call: inactive; negative

## COCCc1ccc(OCC(O)CNC(C)C)cc1 (configuration not stated)
[5]
  mutagenic call: no conclusion

## Cc1c2ccccc2c(C)c2c1c(O)c(O)c1ccccc12
Species/Cell Type: Chinese hamster lung (V79) cells, Assay Type: Forward gene mutation at the HPRT or ouabain locus, Assay Code: V79-*, Activation: With metabolic activation, Evaluation Type: Evaluation A (Pre-1980)
  mutagenic call: inactive; negative
[10]
  call: no conclusion

## O=[N+]([O-])c1ccc(-c2nc(NCC(O)CO)c3ccccc3n2)s1 (configuration not stated)
[9]
  mutagenic call: no conclusion

## CC(C)NCC(O)COc1cccc2[nH]ccc12 (configuration not stated)
[5]
  mutagenic call: no conclusion

## C/C=C/C=C/C#C/C=C/C=C/CCCCCOC(C)=O
[11]
  mutagenic call: no conclusion

## [I][Hg][I]
Species/Cell Type: Nonhuman, Assay Type: Sister-chromatid exchange (SCE) in vitro, Assay Code: SC2-, Evaluation Type: Evaluation B (Post-1980)
  mutagenic call: inactive; negative

## COC(=O)[C@H]1[C@H]2C[C@@H]3c4[nH]c5cc(OC)ccc5c4CCN3C[C@H]2C[C@@H](OC(=O)c2cc(OC)c(OC)c(OC)c2)[C@@H]1OC
Species/Cell Type: Aspergillus nidulans, Assay Type: Aneuploidy, chromosome aberrations, Assay Code: ASNT, Evaluation Type: Evaluation A (Pre-1980)
  mutagenic call: no conclusion
Species/Cell Type: Nonhuman, Assay Code: CCG+, Evaluation Type: Evaluation A (Pre-1980)
  call: active; positive

## CC1(C)O[C@@H]1COc1c2occc2cc2ccc(=O)oc12
[6]
  mutagenic call: active; positive
[7]
  mutagenic call: active; positive

## COC(=O)/C=C(\C)OP(=O)(OC)OC
[7]
  mutagenic call: active; positive
Species/Cell Type: Tradescantia species, Assay Type: Chromosome aberrations, Assay Code: TRC+, Evaluation Type: Evaluation A (Pre-1980)
  mutagenic call: active; positive
Species/Cell Type: Vicia faba, Assay Type: Chromosome aberrations, Assay Code: VIC+, Evaluation Type: Evaluation A (Pre-1980)
  mutagenic call: active; positive

## Cc1c2c(c(CO)c3ccc4ccccc4c13)[C@H](O)[C@@H](O)C=C2
Species/Cell Type: Chinese hamster lung (V79) cells, Assay Type: Forward gene mutation at the HPRT or ouabain locus, Assay Code: V79+, Evaluation Type: Evaluation A (Pre-1980)
  mutagenic call: active; positive
[10]
  call: no conclusion

## Cc1c(C(=O)O)c(O)cc2c1C(=O)c1c(O)c([C@@H]3O[C@@H](CO)[C@H](O)[C@@H](O)[C@H]3O)c(O)c(O)c1C2=O
Species/Cell Type: Bacillus subtilis (H17 vs M45), Assay Type: Rec-assay, spot test, DNA effects (bacterial DNA repair), Assay Code: REWT, Evaluation Type: Evaluation A (Pre-1980)
  mutagenic call: no conclusion
Species/Cell Type: Bacillus subtilis (H17 vs M45T), Assay Type: Rec-assay, spot test, DNA effects (bacterial DNA repair), Assay Code: REXT, Evaluation Type: Evaluation A (Pre-1980)
  mutagenic call: no conclusion

## Nc1nc(/C=C/c2ccc([N+](=O)[O-])o2)no1
Species/Cell Type: Fischer rat embryo (RLV/1706) cells, Assay Type: Cell transformation, viral enhanced, Assay Code: CTR+, Evaluation Type: Evaluation A (Pre-1980)
  mutagenic call: active; positive
Species/Cell Type: Neurospora crassa, Assay Type: Forward gene mutation, Assay Code: NEF+, Evaluation Type: Evaluation A (Pre-1980)
  mutagenic call: active; positive
Species/Cell Type: Neurospora crassa, Assay Type: Reverse gene mutation, Assay Code: NER+, Evaluation Type: Evaluation A (Pre-1980)
  mutagenic call: active; positive
[8]
  mutagenic call: active; positive
Species/Cell Type: Saccharomyces cerevisiae, Assay Type: Mitotic recombination or gene conversion, Assay Code: YEH+, Evaluation Type: Evaluation A (Pre-1980)
  mutagenic call: active; positive
Species/Cell Type: Saccharomyces cerevisiae, Assay Type: Reverse gene mutation, Assay Code: YER+, Evaluation Type: Evaluation A (Pre-1980)
  mutagenic call: active; positive

## CCC[CH2][Sn]([CH2]CCC)([CH2]CCC)[O][Sn]([CH2]CCC)([CH2]CCC)[CH2]CCC
Species/Cell Type: Mammalian polychromatic erythrocytes, Assay Type: Micronucleus test, chromosome aberrations, Assay Code: MNT+U, Dose Response: Unconfirmed positive response, Evaluation Type: Evaluation B (Post-1980)
  mutagenic call: active; positive

## C=C1C/C(=C/C)C(=O)O[C@@H]2CCN3CC=C(COC(=O)[C@]1(C)O)[C@H]23
Species/Cell Type: Nonhuman, Assay Type: Sister-chromatid exchange (SCE) in vitro, Assay Code: SC2+D, Dose Response: With dose response, Evaluation Type: Evaluation B (Post-1980)
  mutagenic call: active; positive

## CCCCN(C)N=O
Species/Cell Type: Arabidopsis species, Assay Type: Gene mutation, Assay Code: ARM+, Evaluation Type: Evaluation A (Pre-1980)
  mutagenic call: active; positive
[1]
  mutagenic call: no conclusion
[2]
  mutagenic call: active; positive

## CCN(CCCC(=O)O)N=O
[4]
  mutagenic call: active; positive

## CC(=O)[O-].CC(=O)[O-].O.O.O.[Pb+2]
Species/Cell Type: Allium cepa, Assay Type: Chromosome aberrations, Assay Code: ALC+D, Dose Response: With dose response, Evaluation Type: Evaluation A (Pre-1980)
  mutagenic call: active; positive
[11]
  mutagenic call: no conclusion

## NC(=O)N1c2ccccc2C=Cc2ccccc21
Species/Cell Type: Human lymphocytes, Assay Type: Sister-chromatid exchange (SCE) in vitro, Assay Code: SCLT, Evaluation Type: Evaluation B (Post-1980)
  mutagenic call: no conclusion
Species/Cell Type: Human, Assay Type: Sister-chromatid exchange (SCE) in vitro, Assay Code: SC1T, Evaluation Type: Evaluation B (Post-1980)
  mutagenic call: no conclusion
[9]
  mutagenic call: no conclusion

## Nc1nc(N)nc(N)n1
Species/Cell Type: Drosophila melanogaster, Assay Type: Sex-linked recessive lethal gene mutation, Assay Code: SRLT, Evaluation Type: Evaluation A (Pre-1980)
  mutagenic call: no conclusion
